Earlier results, collected in patent publication US20090182024A1, “EXTENDED RELEASE TABLET FORMULATION CONTAINING PRAMIPEXOLE OR A PHARMACEUTICALLY ACCEPTABLE SALT THEREOF” (BOEHRINGER INGELHEIM INTERNATIONAL GMBH, priority 2004, published 2009).
Counter-ions that a name gives are not always drawn.

Columns and labels:
[1] = not given; remark: listed apart in the source
[2] = in vivo

SMILES | solubility in buffer media (between pH 2 and pH 7.4) | Water solubility (water) | stability in solution ([1]; in solution) | stability in the solid state ([1]; solid state) | kinetics [2]
CCCN[C@H]1CCc2nc(N)sc2C1 [Pramipexole dihydrochloride monohydrate, pramipexole dihydrochloride monohydrate] | above 10 mg/mL | more than 20 mg/mL | – | – | –
CCCN[C@H]1CCc2nc(N)sc2C1 [Pramipexole, (S)-2-amino-4,5,6,7-tetrahydro-6-(propylamino)benzothiazole] | – | – | light sensitive | very stable | linear kinetics
